Source: article PMC11162475, “Rule-based omics mining reveals antimicrobial macrocyclic peptides against drug-resistant clinical isolates” (Nature Communications, 2024)
Values after ≈ are worked out from the molar mass of the structure shown.

Tests used:
S. aureus ATCC 25923 [1] = assay: Time-dependent killing assay; assay type: cell-based, Staphylococcus aureus; settings: for log(CFU/mL) / CFU/mL: time-killing assay
Protocol: Time-dependent killing assay
An overnight culture of S. aureus ATCC 25923 cells was diluted at 1:10,000 in MHB medium and incubated at 37 ℃, 200 rpm for 2 hours to reach the early exponential.
Then, massatide A or vancomycin was added to the culture at the concentration of 10×MIC. Bacteria were still cultivated at 37 ℃, 200 rpm. Culture with no antibiotics was used as a negative control. 10 μL aliquots were removed at intervals, centrifuged, and resuspended in 1 ml PBS. Serially diluted (10-fold) suspensions were plated on MHB agar and incubated at 37 ℃ overnight for counting of colony-forming units.
Experiments were performed in triplicate. […]

MRSA ATCC33591 = assay: microbe, parasite or virus in culture; assay type: cell-based, Staphylococcus aureus; settings: ATCC33591, 20 h
Protocol: (§1) For MIC determination, Staphylococcus aureus ATCC25923, Bacillus subtilis 168, Micrococcus luteus DSM1790, Enterococcus faecalis OG1RF, Enterococcus faecium MCC2763, Escherichia coli DH5α and Pseudomonas aeruginosa PAO1 were used as indicator strains. Nisin and vancomycin were used as positive controls. A dilution series of massatide A, massatide B, vancomycin (16, 8, 4, 2, 1, 0.5, 0.25, 0.125, 0.0625, 0.0313 μg/mL) and sistertide A1, kebanetide A1, kebanetide A2, nisin (64, 32, 16, 8, 4, 2, 1, 0.5, 0.25, 0.125 μg/mL) were prepared in 96-well plate from 1–10th column. The indicator strains were added to the compound-containing well. The indicator strain culture with no antibiotics was prepared in the 11th column. The 12th column was filled with 200 μL empty MHB medium. The 96-well plate was incubated at 37 °C for 20 h (30 °C for M. luteus and B. subtilis). The OD600 was detected on MULTISKAN Sky (Thermo Scientific) and MIC values were determined. The MIC values of clinical isolates were determined by Sichuan Primed Shines Bio-tech Co., Ltd. (China) following similar protocol. Levofloxacin was used as a positive control.

MRSA ATCC43300 [2] = assay: microbe, parasite or virus in culture; assay type: cell-based, Staphylococcus aureus; settings: ATCC43300, 20 h
Protocol: as §1

VMSA ATCC700699 = assay: microbe, parasite or virus in culture; assay type: cell-based, Staphylococcus aureus; settings: ATCC700699, 20 h
Protocol: as §1

VMSA ATCC700788 = assay: microbe, parasite or virus in culture; assay type: cell-based, Staphylococcus aureus; settings: ATCC700788, 20 h
Protocol: as §1

MRSA 15-1 = assay: microbe, parasite or virus in culture; assay type: cell-based, Staphylococcus aureus; settings: 15-1, 20 h
Protocol: as §1

LRSA 20-1 = assay: microbe, parasite or virus in culture; assay type: cell-based, Staphylococcus aureus; settings: 20 h
Protocol: as §1

MRSA ATCC43300 [3] = assay: Mouse septicaemia model; assay type: in vivo; settings: for number of new dead mouse: infection controlled in mouse; for survival rate of mice: 5 per group
Protocol: Briefly, 6-week-old specific pathogen-free male ICR mice weighing 18–20 g were randomly divided into 4 groups (5 per group). Each mouse received an intraperitoneal injection on the left side of the abdomen with 0.4 ml, 1.8 ×10^10 c.f.u./mL MRSA ATCC43300 suspended in saline containing 5% yeast in each mouse. One hour after infection, the mice were injected intraperitoneally with saline (negative control), massatide A dissolved in saline at 10 mg/kg, 30 mg/kg and 50 mg/kg (experimental groups). […] We injected 0.4 ml solution to each mouse. Animal deaths were recorded for 7 days, and the survival rates were calculated to generate the mouse survival curve.

Escherichia coli DH5α = assay type: cell-based; settings: DH5α, 20 h
Protocol: as §1

[4] = tested on: Pseudomonas aeruginosa PAO1; assay type: cell-based; settings: PAO1, 20 h
Protocol: as §1

[5] = tested on: tested gram-positive pathogens, including vancomycin intermediate-resistant strains; assay type: cell-based; settings: 20 h
Protocol: as §1

S. aureus ATCC 25923 [6] = tested on: S. aureus ATCC 25923
Protocol: was used as a negative control.
Experiments were performed in triplicate.
The experiment was performed in triplicate.

C/C=C1\NC(=O)C(N(C)C)C(C)SC[C@@H](C(=O)N[C@H](CC)C(=O)N[C@H](C(=O)N[C@@H](C)C(=O)N[C@H](C)C(=O)N[C@@H](Cc2ccccc2)C(=O)N[C@@H](C)C(=O)NC2C(=O)NCC(=O)N[C@@H](Cc3ccc(O)cc3)C(=O)N[C@@H](Cc3ccccc3)C(=O)N[C@H](C)C(=O)N/C=C\SC2C)C(C)C)NC(=O)[C@@H]2CCCN2C(=O)[C@H](C(C)C)NC1=O (stereo partly drawn) [Massatide A (1), massatide A]
time-dependent killing, mode of killing (S. aureus ATCC 25923 [1]; S. aureus, early exponential phase, 10×MIC, 37 °C, c.f.u. counting, triplicate): bactericidal
log(CFU/mL) (S. aureus ATCC 25923 [1]; time 0 h, log of mean of 3 replicates): 6.553 log(CFU/mL)
CFU/mL (S. aureus ATCC 25923 [1]; time 0 h, mean of 3 replicates): 3576667 CFU/mL
CFU/mL (S. aureus ATCC 25923 [1]; time 0 h, replicate 1): 2840000 CFU/mL
log(CFU/mL) (S. aureus ATCC 25923 [1]; time 0 h, replicate 1): 6.453 log(CFU/mL)
CFU/mL (S. aureus ATCC 25923 [1]; time 0 h, replicate 2): 4020000 CFU/mL
log(CFU/mL) (S. aureus ATCC 25923 [1]; time 0 h, replicate 2): 6.604 log(CFU/mL)
CFU/mL (S. aureus ATCC 25923 [1]; time 0 h, replicate 3): 3870000 CFU/mL
log(CFU/mL) (S. aureus ATCC 25923 [1]; time 0 h, replicate 3): 6.588 log(CFU/mL)
log(CFU/mL) (S. aureus ATCC 25923 [1]; time 1 h, log of mean of 3 replicates): 4.699 log(CFU/mL)
CFU/mL (S. aureus ATCC 25923 [1]; time 1 h, mean of 3 replicates): 50000 CFU/mL
CFU/mL (S. aureus ATCC 25923 [1]; time 1 h, replicate 1): 70000 CFU/mL
log(CFU/mL) (S. aureus ATCC 25923 [1]; time 1 h, replicate 1): 4.8451 log(CFU/mL)
CFU/mL (S. aureus ATCC 25923 [1]; time 1 h, replicate 2): 50000 CFU/mL
log(CFU/mL) (S. aureus ATCC 25923 [1]; time 1 h, replicate 2): 4.699 log(CFU/mL)
CFU/mL (S. aureus ATCC 25923 [1]; time 1 h, replicate 3): 30000 CFU/mL
log(CFU/mL) (S. aureus ATCC 25923 [1]; time 1 h, replicate 3): 4.477 log(CFU/mL)
log(CFU/mL) (S. aureus ATCC 25923 [1]; time 3 h, log of mean of 3 replicates): 4.176 log(CFU/mL)
CFU/mL (S. aureus ATCC 25923 [1]; time 3 h, mean of 3 replicates): 15000 CFU/mL
CFU/mL (S. aureus ATCC 25923 [1]; time 3 h, replicate 1): 10000 CFU/mL
log(CFU/mL) (S. aureus ATCC 25923 [1]; time 3 h, replicate 1): 4 log(CFU/mL)
CFU/mL (S. aureus ATCC 25923 [1]; time 3 h, replicate 2): 20000 CFU/mL
log(CFU/mL) (S. aureus ATCC 25923 [1]; time 3 h, replicate 2): 4.301 log(CFU/mL)
CFU/mL (S. aureus ATCC 25923 [1]; time 3 h, replicate 3): 15000 CFU/mL
log(CFU/mL) (S. aureus ATCC 25923 [1]; time 3 h, replicate 3): 4.176 log(CFU/mL)
log(CFU/mL) (S. aureus ATCC 25923 [1]; time 7 h, log of mean of 3 replicates): 3.921 log(CFU/mL)
CFU/mL (S. aureus ATCC 25923 [1]; time 7 h, mean of 3 replicates): 8333.33 CFU/mL
CFU/mL (S. aureus ATCC 25923 [1]; time 7 h, replicate 1): 5000 CFU/mL
log(CFU/mL) (S. aureus ATCC 25923 [1]; time 7 h, replicate 1): 3.699 log(CFU/mL)
CFU/mL (S. aureus ATCC 25923 [1]; time 7 h, replicate 2): 10000 CFU/mL
log(CFU/mL) (S. aureus ATCC 25923 [1]; time 7 h, replicate 2): 4 log(CFU/mL)
CFU/mL (S. aureus ATCC 25923 [1]; time 7 h, replicate 3): 10000 CFU/mL
log(CFU/mL) (S. aureus ATCC 25923 [1]; time 7 h, replicate 3): 4 log(CFU/mL)
log(CFU/mL) (S. aureus ATCC 25923 [1]; time 26 h, log of mean of 3 replicates): 2.049 log(CFU/mL)
CFU/mL (S. aureus ATCC 25923 [1]; time 26 h, mean of 3 replicates): 112 CFU/mL
CFU/mL (S. aureus ATCC 25923 [1]; time 26 h, replicate 1): 70 CFU/mL
log(CFU/mL) (S. aureus ATCC 25923 [1]; time 26 h, replicate 1): 1.8451 log(CFU/mL)
CFU/mL (S. aureus ATCC 25923 [1]; time 26 h, replicate 2): 120 CFU/mL
log(CFU/mL) (S. aureus ATCC 25923 [1]; time 26 h, replicate 2): 2.079 log(CFU/mL)
CFU/mL (S. aureus ATCC 25923 [1]; time 26 h, replicate 3): 146 CFU/mL
log(CFU/mL) (S. aureus ATCC 25923 [1]; time 26 h, replicate 3): 2.164 log(CFU/mL)
MIC (MRSA ATCC33591): 1 µg/mL (≈ 0.612 µM)
MIC (MRSA ATCC43300 [2]): 0.25 µg/mL (≈ 0.153 µM)
MIC (VMSA ATCC700699): 4 µg/mL (≈ 2.45 µM)
MIC (VMSA ATCC700788): 4 µg/mL (≈ 2.45 µM)
MIC (MRSA 15-1): 2 µg/mL (≈ 1.22 µM)
MIC (LRSA 20-1): 0.25 µg/mL (≈ 0.153 µM)
number of new dead mouse (MRSA ATCC43300 [3]; 10mg/kg, time 2.29 day): 1
number of new dead mouse (MRSA ATCC43300 [3]; 10mg/kg, time 3 day): 0
number of new dead mouse (MRSA ATCC43300 [3]; 10mg/kg, time 4 day): 0
number of new dead mouse (MRSA ATCC43300 [3]; 10mg/kg, time 6 day): 0
number of new dead mouse (MRSA ATCC43300 [3]; 10mg/kg, time 7 day): 0
number of new dead mouse (MRSA ATCC43300 [3]; 30mg/kg, time 2.29 day): 1
number of new dead mouse (MRSA ATCC43300 [3]; 30mg/kg, time 3 day): 0
number of new dead mouse (MRSA ATCC43300 [3]; 30mg/kg, time 4 day): 0
number of new dead mouse (MRSA ATCC43300 [3]; 30mg/kg, time 6 day): 0
number of new dead mouse (MRSA ATCC43300 [3]; 30mg/kg, time 7 day): 0
number of new dead mouse (MRSA ATCC43300 [3]; 50mg/kg, time 2.29 day): 0
number of new dead mouse (MRSA ATCC43300 [3]; 50mg/kg, time 3 day): 0
number of new dead mouse (MRSA ATCC43300 [3]; 50mg/kg, time 4 day): 0
number of new dead mouse (MRSA ATCC43300 [3]; 50mg/kg, time 6 day): 0
number of new dead mouse (MRSA ATCC43300 [3]; 50mg/kg, time 7 day): 0
survival rate of mice (MRSA ATCC43300 [3]; single dose 10 mg/kg i.p. 1 h after i.p. infection with 7.2 × 10^9 c.f.u. MRSA ATCC43300, 7 days): 80%
survival rate of mice (MRSA ATCC43300 [3]; single dose 50 mg/kg i.p. 1 h after i.p. infection with 7.2 × 10^9 c.f.u. MRSA ATCC43300, 7 days): 100%
MIC (Escherichia coli DH5α): >128 µg/mL
MIC [4]: >128 µg/mL
MIC (potency) against tested gram-positive pathogens [5]: below 4 μg/mL
MIC to S. aureus after serial passaging (S. aureus ATCC 25923 [6]; 25 days of serial passaging in subinhibitory concentrations, triplicate): 4 µg/mL (≈ 2.45 µM)
change in MIC during serial passaging (S. aureus ATCC 25923 [6]; subsequent 19 days after day 6): No significant change in MIC
